Results taken from paper PMC7411887, “New Paracyclophanylthiazoles with Anti-Leukemia Activity: Design, Synthesis, Molecular Docking, and Mechanistic Studies” (Molecules, 2020).
Where two headings read alike, the source gives them in different places.

Tests used:
[1] = test system: HL-60(TB); test: NCI single-dose screen (SRB); format: cell-based; settings: Homo sapiens; Leukemia HL-60(TB); 10^−5 M; read-out: Growth inhibition percentage
Method: (§1) The methodology of the NCI anticancer screening was described in detail elsewhere (http://www.dtp.nci.nih.gov). […] Tested compounds were added to the culture at a single concentration (10^−5 M) and the cultures were incubated for 48 h. End-point determinations were made with a protein binding dye, SRB. Results for each tested compound were reported as the percentage growth of the treated cells when compared to the untreated control cells. The percentage growth was evaluated spectrophotometrically versus controls not treated with test agents. All experiments were repeated three times (Table 1).
Briefly, the protocol was performed on 60 human tumor cell lines derived from different nine neoplastic diseases. […] If the results obtained met selection criteria, then the compound was tested again on all 60 cell lines in 5× 10-fold dilutions with the top dose being 10^−4 M or 150 μg/mL. Detailed methods are described in the Supplementary Materials related to this article. […]
on their site (http://www.dtp.nci.nih.gov). But briefly, the protocol performed at sixty human […]
National Cancer Institute, Bethesda, USA. If the results obtained meet selection criteria, then the […]
10-4 molar or 150 μg/mL. Detailed methods are described in supplementary material related to […]
2. MTT- Cytotoxicity assay method […]
should not exceed 10^6 cells/cm2. Each test should include a blank containing complete medium […]
salt solution without phenol red and serum. Add reconstituted MTT in an amount equal to 10% of the culture medium volume.

[2] = test system: 786-0; test: NCI single-dose screen (SRB); format: cell-based; settings: Homo sapiens; Renal Cancer 786-0; 10^−5 M; read-out: Growth inhibition percentage
Method: as §1
(§2) Briefly, the protocol was performed on 60 human tumor cell lines derived from different nine neoplastic diseases. […] If the results obtained met selection criteria, then the compound was tested again on all 60 cell lines in 5× 10-fold dilutions with the top dose being 10^−4 M or 150 μg/mL. Detailed methods are described in the Supplementary Materials related to this article.
(§3) on their site (http://www.dtp.nci.nih.gov). But briefly, the protocol performed at sixty human
(§4) National Cancer Institute, Bethesda, USA. If the results obtained meet selection criteria, then the
(§5) 10-4 molar or 150 μg/mL. […]

[3] = test system: A498; test: NCI single-dose screen (SRB); format: cell-based; settings: Homo sapiens; Renal Cancer A498; 10^−5 M; read-out: Growth inhibition percentage
Method: as §1, §2, §3, §4, §5

[4] = test system: A549/ATCC; test: NCI single-dose screen (SRB); format: cell-based; settings: Homo sapiens; Non-Small-Cell Lung Cancer A549/ATCC; 10^−5 M; read-out: Growth inhibition percentage
Method: as §1, §2, §3, §4, §5

[5] = test system: CAKI-1; test: NCI single-dose screen (SRB); format: cell-based; settings: Homo sapiens; Renal Cancer CAKI-1; 10^−5 M; read-out: Growth inhibition percentage
Method: as §1, §2, §3, §4, §5

[6] = test system: HCC-2998; test: NCI single-dose screen (SRB); format: cell-based; settings: Homo sapiens; Colon Cancer HCC-2998; 10^−5 M; read-out: Growth inhibition percentage
Method: as §1, §2, §3, §4, §5

[7] = test system: HOP-62; test: NCI single-dose screen (SRB); format: cell-based; settings: Homo sapiens; Non-Small-Cell Lung Cancer HOP-62; 10^−5 M; read-out: Growth inhibition percentage
Method: as §1, §2, §3, §4, §5

[8] = test system: K-562; test: NCI single-dose screen (SRB); format: cell-based; settings: Homo sapiens, K562; Leukemia K-562; 10^−5 M; read-out: Growth inhibition percentage
Method: as §1, §2, §3, §4, §5

[9] = test system: KM12; test: NCI single-dose screen (SRB); format: cell-based; settings: Homo sapiens; Colon Cancer KM12; 10^−5 M; read-out: Growth inhibition percentage
Method: as §1, §2, §3, §4, §5

[10] = test system: LOX IMVI; test: NCI single-dose screen (SRB); format: cell-based; settings: Homo sapiens; Melanoma LOX IMVI; 10^−5 M; read-out: Growth inhibition percentage
Method: as §1, §2, §3, §4, §5

[11] = test system: MALME-3M; test: NCI single-dose screen (SRB); format: cell-based; settings: Homo sapiens; Melanoma MALME-3M; 10^−5 M; read-out: Growth inhibition percentage
Method: as §1, §2, §3, §4, §5

[12] = test system: MDA-MB-435; test: NCI single-dose screen (SRB); format: cell-based; settings: Homo sapiens; Melanoma MDA-MB-435; 10^−5 M; read-out: Growth inhibition percentage
Method: as §1, §2, §3, §4, §5

[13] = test system: MOLT-4; test: NCI single-dose screen (SRB); format: cell-based; settings: Homo sapiens; Leukemia MOLT-4; 10^−5 M; read-out: Growth inhibition percentage
Method: as §1, §2, §3, §4, §5

[14] = test system: NCI-H322M; test: NCI single-dose screen (SRB); format: cell-based; settings: Homo sapiens; Non-Small-Cell Lung Cancer NCI-H322M; 10^−5 M; read-out: Growth inhibition percentage
Method: as §1, §2, §3, §4, §5

[15] = test system: NCI-H522; test: NCI single-dose screen (SRB); format: cell-based; settings: Homo sapiens; Non-Small-Cell Lung Cancer NCI-H522; 10^−5 M; read-out: Growth inhibition percentage
Method: as §1, §2, §3, §4, §5

[16] = test system: OVCAR-4; test: NCI single-dose screen (SRB); format: cell-based; settings: Homo sapiens; Ovarian Cancer OVCAR-4; 10^−5 M; read-out: Growth inhibition percentage
Method: as §1, §2, §3, §4, §5

[17] = test system: OVCAR-8; test: NCI single-dose screen (SRB); format: cell-based; settings: Homo sapiens; Ovarian Cancer OVCAR-8; 10^−5 M; read-out: Growth inhibition percentage
Method: as §1, §2, §3, §4, §5

[18] = test system: RPMI-8226; test: NCI single-dose screen (SRB); format: cell-based; settings: Homo sapiens; Leukemia RPMI-8226; 10^−5 M; read-out: Growth inhibition percentage
Method: as §1, §2, §3, §4, §5

[19] = test system: SF-268; test: NCI single-dose screen (SRB); format: cell-based; settings: Homo sapiens; CNS Cancer SF-268; 10^−5 M; read-out: Growth inhibition percentage
Method: as §1, §2, §3, §4, §5

[20] = test system: SW-620; test: NCI single-dose screen (SRB); format: cell-based; settings: Homo sapiens; Colon Cancer SW-620; 10^−5 M; read-out: Growth inhibition percentage
Method: as §1, §2, §3, §4, §5

[21] = test system: T-47D; test: NCI single-dose screen (SRB); format: cell-based; settings: Homo sapiens, T47D; Breast Cancer T-47D; 10^−5 M; read-out: Growth inhibition percentage
Method: as §1, §2, §3, §4, §5

[22] = test system: TK-10; test: NCI single-dose screen (SRB); format: cell-based; settings: Homo sapiens; Renal Cancer TK-10; 10^−5 M; read-out: Growth inhibition percentage
Method: as §1, §2, §3, §4, §5

[23] = test system: UACC-62; test: NCI single-dose screen (SRB); format: cell-based; settings: Homo sapiens; Melanoma UACC-62; 10^−5 M; read-out: Growth inhibition percentage
Method: as §1, §2, §3, §4, §5

[24] = test system: UO-31; test: NCI single-dose screen (SRB); format: cell-based; settings: Homo sapiens; Renal Cancer UO-31; 10^−5 M; read-out: Growth inhibition percentage
Method: as §1, §2, §3, §4, §5

[25] = test system: leukemia RPMI-8226; test: MTT antiproliferative assay; settings: Homo sapiens
[26] = test system: leukemia SR; test: MTT antiproliferative assay; settings: Homo sapiens, read-out: Cytotoxicity IC50 L.SR
[27] = RPMI-8226, read-out: Cytotoxicity IC50 RPMI-8226, MTT, mean ± SD

In the case of C=CCN1C(=O)C(=CC(=O)OC)SC1=NNC(=O)c1cc2ccc1CCc1ccc(cc1)CC2 [Compound 3d], the inhibition at 10 µM [1] is reported as 8.16%, the inhibition at 10 µM [2] is reported as 8.77% and the inhibition at 10 µM [3] is reported as 12.1%. The inhibition at 10 µM [4] was 5.2%, the inhibition at 10 µM [5] was 5.23% and the inhibition at 10 µM [6] was 0%. For the same molecule, the inhibition at 10 µM [7] was 0%, the inhibition at 10 µM [8] was 48.1% and the inhibition at 10 µM [9] was 18.4%. It also gave an inhibition at 10 µM [10] of 21.2%, an inhibition at 10 µM [11] of 7.56% and an inhibition at 10 µM [12] of 0%. The inhibition at 10 µM [13] was 64.5%, the inhibition at 10 µM [14] was 2.94% and the inhibition at 10 µM [15] was 39.2%. For the same molecule, the inhibition at 10 µM [16] was 2.93%, the inhibition at 10 µM [17] was 11.8% and the inhibition at 10 µM [18] was 109%. It also gave an inhibition at 10 µM [19] of 0%, an inhibition at 10 µM [20] of 55.5% and an inhibition at 10 µM [21] of 25%. The inhibition at 10 µM [22] was 0%, the inhibition at 10 µM [23] was 22.8% and the inhibition at 10 µM [24] was 24.6%. For the same molecule, the IC50 [25, 27] was 17.81 ± 0.0544 µM and the IC50 [26] was 22.06 ± 0.0679 µM.
For COC(=O)C=C1SC(=NNC(=O)c2cc3ccc2CCc2ccc(cc2)CC3)N(Cc2ccccc2)C1=O [Compound 3b], the inhibition at 10 µM [1] was 105%, the inhibition at 10 µM [2] was 50.5% and the inhibition at 10 µM [3] was 53.9%. For the same molecule, the inhibition at 10 µM [4] was 22.9%, the inhibition at 10 µM [5] was 84.4% and the inhibition at 10 µM [6] was 20.5%. The inhibition at 10 µM [7] was 22.8%, the inhibition at 10 µM [8] was 81.1% and the inhibition at 10 µM [9] was 34.9%. It also gave an inhibition at 10 µM [10] of 93.8%, an inhibition at 10 µM [11] of 11.6% and an inhibition at 10 µM [12] of 8.44%. It also gave an inhibition at 10 µM [13] of 98.9%, an inhibition at 10 µM [14] of 6.7% and an inhibition at 10 µM [15] of 84.1%. The inhibition at 10 µM [16] was 55.4%, the inhibition at 10 µM [17] was 28% and the inhibition at 10 µM [18] was 147%. It also gave an inhibition at 10 µM [19] of 14.9%, an inhibition at 10 µM [20] of 81.8% and an inhibition at 10 µM [21] of 106%. For the same molecule, the inhibition at 10 µM [22] was 4.53%, the inhibition at 10 µM [23] was 48.1% and the inhibition at 10 µM [24] was 55%. For the same molecule, the IC50 [25, 27] was 4.62 ± 0.0459 µM and the IC50 [26] was 2.02 ± 0.0688 µM.
Work on COc1cc2c(c(OC)c1OC)-c1ccc(OC)c(=O)cc1[C@@H](NC(C)=O)CC2 [Colchicine, colchicine, reference compound] yielded an IC50 ([25]; RPMI-8226, read-out: Cytotoxicity IC50 RPMI-8226) of 4.05 ± 0.0478 µM and an IC50 [26] of 1.81 ± 0.0701 µM.
CCN1C(=O)C(=CC(=O)OC)SC1=NNC(=O)c1cc2ccc1CCc1ccc(cc1)CC2 [Compound 3e] showed an inhibition at 10 µM [1] of 11.6%, an inhibition at 10 µM [2] of 9.45% and an inhibition at 10 µM [3] of 6.63%. The inhibition at 10 µM [4] was 3%, the inhibition at 10 µM [5] was 0% and the inhibition at 10 µM [6] was 0%. The inhibition at 10 µM [7] was 0%, the inhibition at 10 µM [8] was 45.8% and the inhibition at 10 µM [9] was 15%. For the same molecule, the inhibition at 10 µM [10] was 26.5%, the inhibition at 10 µM [11] was 8.06% and the inhibition at 10 µM [12] was 0.72%. For the same molecule, the inhibition at 10 µM [13] was 62.9%, the inhibition at 10 µM [14] was 7.75% and the inhibition at 10 µM [15] was 40.3%. The inhibition at 10 µM [16] was 10%, the inhibition at 10 µM [17] was 7.42% and the inhibition at 10 µM [18] was 114%. The inhibition at 10 µM [19] was 2.18%, the inhibition at 10 µM [20] was 91.2% and the inhibition at 10 µM [21] was 5.77%. The inhibition at 10 µM [22] was 6.5%, the inhibition at 10 µM [23] was 21.4% and the inhibition at 10 µM [24] was 21%. The IC50 [25, 27] was 3.17 ± 0.0489 µM and the IC50 [26] was 5.04 ± 0.0791 µM.
